Results from patent publication US8754047B2, “Peptide compositions and methods of use” (The Research Foundation for the State University of New York, priority 2008, dated 2014).
Values joined by “and” are separate entries in the source; they are usually repeats but may differ in a detail not shown here. Equal values may be shown once. Positions of bridges follow the written chain, without caps; N, C: chain ends. Residues, ends and D or L forms follow the SMILES beside them.

Key:
[1] = system: BxPC-3 human pancreatic cancer cells; conditions: 24 h
Description: (§1) 10,000 HT29 or SW480 human colon cancer cells, BxPC-3 human pancreatic cancer cells, and MCF7 and MDA-MB-231 breast cancer cells were obtained from American Type Culture Collection (ATTC), Manassas, Va., and were seeded in separate 96-well plates. After treatment with various concentrations (6.25 μM, 12.5 μM, 25 μM, 50 μM, 100 μM, or 200 μM) of test peptide for 24 h, cells were stained with MTT (3-(4,5-Dimethyl-2-thiazolyl)-2,5-diphenyl-2H-tetrazolium bromide, from Sigma-Aldrich) following the instructions of the manufacturer. Before dissolving MTT in SDS, the HT29 and SW480 cells were photographed using a digital camera connected with a phase-contrast microscope. (FIG. 2A1-8, and FIG. 2B1-6). Cells that are alive convert MTT into formazan in their active mitochondria and appear dark purple; dead cells are not stained by MTT and appear colorless.
(§2) The IC50 is the concentration of the test agent that inhibits cell growth by 50% at 24 hours of exposure. IC50s were determined using the MTT assay or using the cell Titer-Glo method and following the instructions of the manufacturer ([…]). […] (Sun, Y., and Rigas, B., (2008), Cancer Res., 68(20): 8269-8277).

MCF7 breast cancer cells = conditions: 24 h
Description: as §1, §2

[2] = system: MDA-MB-231 breast cancer cells; conditions: 24 h
Description: as §1, §2

[3] = system: SW480 human colon cancer cell xenografts; assay: In vivo xenograft assay of tumor size, SCID mice; conditions: 100 μg intraperitoneally once a day, 10 days, one mouse
Description: Immunodeficient SCID mice (from Jackson Lab) were transplanted subcutaneously to their flank with 1.5 million SW480 human colon cancer cells. After the tumor size reached 120-150 mm^3, one mouse was treated with 100 μg YJB01 peptide injected intraperitoneally once a day, and the other one was treated with DMSO as a vehicle control. The tumor size was measured every two days (see FIG. 3A and FIG. 3B). The tumor volume was calculated based on its length (L) and width (W) using the formula Tumor volume=LW(L+W/2)0.56. (Rigas, B., and Kozoni, V., (2008) International Journal of Oncology, 32: 97-100). On the 10th day of treatment, the tumor volume was determined, the SCID mice were sacrificed and the tumors were excised and their weight was recorded (FIG. 3B).

[4] = system: SW480 human colon cancer cells; assay: Flow cytometry forward/side scatter, proportion of dead cells, SW480; assay type: cell-based; conditions: 200 μM, 24 hr
Description: SW480 human colon cancer cells and MCF7 breast cancer cells were grown following the instructions of American Type Culture Collection (ATCC, Monassas, Va.). The cells were treated with the test peptides (YJB01, YJB05, or YJB06) for 24 hrs at concentrations ranging from 0 μM, to 200 μM and subjected to flow cytometric analysis following standard protocols.
SW480 human colon cancer cells and MCF7 breast cancer cells were grown following the instructions of American Type Culture Collection (ATCC, Monassas, Va.). The cells were treated with the test peptides for 24 hrs at concentrations ranging from 0 μM, to 200 μM and subjected to flow cytometry analysis following standard protocols. […] The circumscribed (gated, outlined) areas in the figure indicate dead cells; dead cells generally have higher density (side scatter) and smaller size (forward scatter) than living cells.

[5] = system: MCF-7 human breast cancer cells; assay: Annexin V-FITC flow cytometry for apoptotic cells, MCF7; assay type: cell-based; conditions: 24 hrs, 0 μM to 200 μM
Description: (§3) SW480 human colon cancer cells and MCF7 breast cancer cells were grown following the instructions of American Type Culture Collection (ATCC, Monassas, Va.). The cells were treated with the test peptides (YJB01, YJB05, or YJB06) for 24 hrs at concentrations ranging from 0 μM, to 200 μM. After treatment, cells were trypsinized and stained with Annexin V-FITC (100× dilution) for 15 minutes. Annexin V-FITC fluorescence intensities were analyzed by FACSCaliber (BD Bioscience) following standard protocols. Annexin V (+) cells are apoptotic cells.
When cells undergo apoptosis, the inner membrane phospholipid, phosphotidylserine (PS), flips to the outer membrane and can be recognized by the […]. The green FITC fluorescence can be determined by flow cytometry and thus Annexin V (+) cells are apoptotic cells.
as §3, with “In this study, SW480” for “SW480”, “human” for “human colon”, “treatment” for “treatment,”, “protocols.” for “protocols. Annexin V (+) cells are apoptotic cells.”

[6] = system: SW480 human colon cancer cells; assay: RONS levels by DCFDA probe, flow cytometry; assay type: cell-based; conditions: 1 hr, control 14.69
Description: (§4) SW480 human colon cancer cells were grown following the instructions of American Type Culture Collection (ATCC, Monassas, Va.). The cells were treated with the test peptide YJB01 for 1 hr at either 20 μM or 100 μM. After treatment, cells were trypsinized and stained with DCFDA (10 μmol/L) for 30 minutes at 37° C. DCFDA fluorescence intensity was analyzed by FACSCaliber (BD Bioscience) following standard protocols. […] Thus, FIG. 6A indicates YJB01 induces RONS production in a concentration dependent manner.
The levels of RONS in SW480 and MCF-7 cells were evaluated using the methodology described in Rigas, B., and Y. Sun. (2008), using the general RONS probe, dichlorodihydrofluorescein diacetate (DCFDA). (Rigas, B., and Sun., Y., (2008), Br J Cancer 98:1157-1160).
as §4, with “37°.” for “37° C.”

Q: With `CC[C@H](C)[C@H](NC(=O)[C@H](CCCCN)NC(=O)[C@@H](NC(=O)[C@H](CCC(N)=O)NC(=O)[C@H](CCCNC(=N)N)NC(=O)[C@@H]1CCCN1C(=O)[C@H](CCCCN)NC(=O)[C@@H]1CSSC[C@H](NC(=O)[C@H](Cc2c[nH]c3ccccc23)NC(=O)[C@@H](NC(=O)[C@H](C)N)[C@@H](C)O)C(=O)NCC(=O)N2CCC[C@H]2C(=O)N1)[C@@H](C)CC)C(=O)N[C@@H](Cc1c[nH]c2ccccc12)C(=O)N[C@@H](Cc1ccccc1)C(=O)N[C@@H](CCC(N)=O)C(=O)N[C@@H](CC(N)=O)C(=O)N[C@@H](CCCNC(=N)N)C(=O)N[C@@H](CCCNC(=N)N)C(=O)N[C@@H](CCSC)C(=O)N[C@@H](CCCCN)C(=O)N[C@@H](Cc1c[nH]c2ccccc12)C(=O)N[C@@H](CCCCN)C(=O)N[C@@H](CCCCN)C(=O)O` [YJB01] (H-ATWCGPCKPRQIKIWFQNRRMKWKK-OH; disulfide 4-7; N-terminus and C-terminus assumed) as the molecule, how does the IC50 [1] read?
A: Its IC50 is 109 µM.

Q: What about the IC50 (MCF7 breast cancer cells) of the same molecule?
A: Its IC50 is 68.9 µM.

Q: And the IC50 [2]?
A: The IC50 was 88 µM.

Q: What about the “tumor growth at day 10 comparing with day 1” value [3] of the same molecule?
A: The value was −0.04% and −4%.

Q: What about the “dead cells, SW480” value [4] of the same molecule?
A: The value was 81.19%.

Q: What about the “apoptosis, Annexin V (+) cells, MCF7” value [5] of the same molecule?
A: The value was “cell killing effect”.

Q: What about the “Geometric Mean of the fluorescence intensity of DCFDA” value ([6]; 20 μM) of the same molecule?
A: The value was 19.05.

Q: And the “Geometric Mean of the fluorescence intensity of DCFDA” value ([6]; 100 μM)?
A: The value was 29.6.
